Legend:
[1] = test system: 3D Sebocytes culture (human cell line SEBO662); assay: Lipid accumulation (Oil-red-O staining) in 3D model culture of Sebocytes; format: cell-based; conditions: 14 days incubation, lipid droplet surface area
Excerpt: Since secretory cells (meibocytes) of meibomian glands, share similarities with that of the secretory cells (sebocytes) of sebaceous glands, as can be validated from their similar structure, similar function and their joint embryologic development (Knop 2011_IOVS) the effect of Thiol containing Lipids on lipid production can be evaluated in a 3D model culture of Sebocytes. See also: Barrault 2012, Immortalized sebocytes can spontaneously differentiate into a sebaceous-like phenotype when cultured as a 3D epithelium, Exp. Derm, 21:299-319
The effect of different compounds on lipid synthesis was evaluated, in a 3D model culture of Sebocytes. Drug candidates were compounds comprising a thiol group. Selenium disulfide (SeS2 dispersed in CarboxymethylCellulose—CMC) as a positive control. Since Sebocytes differentiation is associated with increased lipid synthesis and accumulation, evaluation of proliferation and differentiation was done by quantifying lipid accumulation in the 3D Sebocytes culture (human cell line—SEBO662). Lipid accumulation was evaluated by lipid staining with Oil red staining.
Sebocytes SEBO662 were cultured into a three dimension (3D) epithelium and differentiated to a sebaceous-like phenotype. The Sebocytes were treated or not (control) with the test compounds and incubated for 14 days. All experiments were performed 3 times. After incubation, tissues were snap-frozen. Formaldehyde-fixed cryo sections were stained using an Oil-red-O solution and counterstained using haematoxylin. For each test condition, the sections were observed using a light microscope equipped with a camera. Five pictures were taken per replicate, making 15 values per treatment condition. The lipid content in each sample was quantified by calculation of the lipid droplet surface area. Quantitative comparison of all data points between lipid's droplet surface area of tested compounds versus control was performed

[2] = Ex vivo free thiol determination in the human skin model system; conditions: non-toxic concentrations
Procedure: (§1) Dose response and time course analyses was performed initially in order to evaluate the impact of bucillamine on HaCaT cell viability. Then, selected non-toxic concentrations were further evaluated by BrdU incorporation to determine the ability of the test item to reduce the keratinocyte proliferation rate. In addition, the ability of the test items to reduce thiol moieties, and therefore loosen the blockage of the meibomian gland, was tested on stratum corneum obtained from human skin.
(§2) The cells were incubated without or with six concentrations of the test item, for 24, 48 and 72 hr at 37° C. with 5% CO2 under humidified conditions. At the end of each incubation period, cell viability was measured by MTT assay. A blank control was subtracted from all the measurements. HaCaT Turnover Rate Determination The proliferation rate of HaCaT cells upon treatments with the test item was examined by using the BrdU assay. Colorimetric evaluation of the turnover rate was recorded by ELISA reader. Ex Vivo Assessment in the Human Skin Model System The human skin organ culture was obtained from healthy patient undergoing plastic surgery. The study was initiated the day of surgery.
To isolate the free thiol from the mixture of the samples, samples were incubated with equal volume of TCA (trichloroacetic acid) for 5 min. […] The pellets were evaluated.

[3] = test system: HaCaT cells; assay: HaCaT turnover rate determination (BrdU assay); format: cell-based; conditions: BrdU incorporation, non-toxic concentrations
Procedure: as §1, §2

Row | SMILES | lipid accumulation in the upper region of the 3D Sebocytes (% of the control) ([1]; 0.01 μM) | lipid accumulation in the upper region of the 3D Sebocytes (% of the control) ([1]; 0.1 μM) | increase of free thiol moieties (keratolytic efficacy) [2] | keratostatic efficacy: turnover rate of the keratinocytes cells [3] | lipid accumulation in the upper region of the 3D Sebocytes (% of the control) ([1]; 1 μM)
1 | S=[Se]=S [Selenium disulfide] | 282 % of the control | 348 % of the control |  |  | 
2 | CC(C)(S)C(=O)N[C@@H](CS)C(=O)O [Bucillamine, bucillamine] | 115 % of the control | 172 % of the control | approx. 6 fold | reducing the turnover rate | 214 % of the control
